What all share (type): binding
The target in experiment [1] is T1, panel of 442 kinases (Homo sapiens, UniProt P15056, V600E).
T1 construct: purchased KINOMEscan
Conditions: Compound Concentration 10 µM. The source says:
(§1) We assessed the selectivity of members of this scaffold using the KINOMEscan methodology across a near comprehensive panel of 442 kinases [[18,27]].

In experiment [2] the target is T2, panel of 442 kinases (Homo sapiens, UniProt Q8WU08).
T2 construct: purchased KINOMEscan
Conditions: kinase YANK1; compound concentration 10 µM.
Source text: as §1

Experiment [3] concerns the target T3, panel of 442 kinases (Homo sapiens, UniProt P15056).
T3 construct: purchased KINOMEscan
Conditions: Compound Concentration 10 µM.
Source text: as §1

The target of experiment [4] is T4, panel of 442 kinases (Homo sapiens, UniProt P07948).
T4 construct: purchased KINOMEscan
T4 sequence (P07948 whole entry): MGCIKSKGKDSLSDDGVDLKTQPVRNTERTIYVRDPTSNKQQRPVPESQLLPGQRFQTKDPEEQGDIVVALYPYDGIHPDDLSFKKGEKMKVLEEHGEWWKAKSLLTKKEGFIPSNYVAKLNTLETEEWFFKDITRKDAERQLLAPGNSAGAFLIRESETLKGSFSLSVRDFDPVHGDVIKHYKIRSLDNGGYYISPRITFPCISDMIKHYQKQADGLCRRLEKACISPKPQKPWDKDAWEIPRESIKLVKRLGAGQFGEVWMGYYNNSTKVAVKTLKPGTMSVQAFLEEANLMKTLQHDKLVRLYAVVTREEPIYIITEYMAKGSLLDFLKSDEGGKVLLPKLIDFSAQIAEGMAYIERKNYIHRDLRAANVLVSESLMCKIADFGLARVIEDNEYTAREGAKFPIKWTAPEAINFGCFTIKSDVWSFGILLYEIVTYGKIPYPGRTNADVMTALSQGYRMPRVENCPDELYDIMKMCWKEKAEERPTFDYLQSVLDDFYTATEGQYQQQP
Conditions: Compound Concentration 10 µM.
Source text: as §1

T3 sequence (P15056 whole entry): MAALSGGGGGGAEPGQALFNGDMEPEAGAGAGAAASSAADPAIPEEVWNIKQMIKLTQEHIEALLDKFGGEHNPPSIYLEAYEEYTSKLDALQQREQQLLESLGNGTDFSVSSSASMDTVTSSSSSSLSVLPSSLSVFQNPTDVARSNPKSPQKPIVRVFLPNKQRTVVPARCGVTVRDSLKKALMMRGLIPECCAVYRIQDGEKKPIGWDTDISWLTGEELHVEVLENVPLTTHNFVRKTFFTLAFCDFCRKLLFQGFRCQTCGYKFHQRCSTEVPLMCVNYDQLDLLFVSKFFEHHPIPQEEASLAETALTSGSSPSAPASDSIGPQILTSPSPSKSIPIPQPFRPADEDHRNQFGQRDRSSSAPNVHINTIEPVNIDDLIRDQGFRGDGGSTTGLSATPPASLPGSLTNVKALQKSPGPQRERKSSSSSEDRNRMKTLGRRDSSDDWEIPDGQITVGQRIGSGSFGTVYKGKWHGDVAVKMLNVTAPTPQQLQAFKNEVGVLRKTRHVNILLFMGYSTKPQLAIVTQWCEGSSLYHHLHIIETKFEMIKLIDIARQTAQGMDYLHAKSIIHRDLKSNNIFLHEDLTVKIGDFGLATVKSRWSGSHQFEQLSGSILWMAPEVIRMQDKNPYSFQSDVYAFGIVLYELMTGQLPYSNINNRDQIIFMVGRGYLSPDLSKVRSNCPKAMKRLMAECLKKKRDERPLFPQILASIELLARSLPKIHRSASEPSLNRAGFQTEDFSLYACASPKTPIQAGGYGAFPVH
T1 sequence (P15056 whole entry V600E): as the sequence (P15056 whole entry) above, with V600E counted along it
T2 sequence (Q8WU08 whole entry): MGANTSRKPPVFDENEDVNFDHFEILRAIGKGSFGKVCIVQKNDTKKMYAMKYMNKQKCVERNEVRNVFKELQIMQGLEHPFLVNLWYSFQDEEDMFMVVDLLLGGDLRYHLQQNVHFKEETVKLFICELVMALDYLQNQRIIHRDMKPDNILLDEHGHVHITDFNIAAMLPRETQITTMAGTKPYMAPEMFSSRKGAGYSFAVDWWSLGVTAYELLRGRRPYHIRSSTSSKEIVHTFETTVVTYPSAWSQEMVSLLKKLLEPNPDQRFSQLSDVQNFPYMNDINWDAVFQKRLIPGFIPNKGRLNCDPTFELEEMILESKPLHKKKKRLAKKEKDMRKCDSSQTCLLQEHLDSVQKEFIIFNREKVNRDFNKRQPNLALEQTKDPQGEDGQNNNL

As for `COc1cc(C(=O)N2CCC(N3CCN(C)CC3)CC2)ccc1Nc1ncc2c(n1)N(C1CCCC1)c1ccccc1C(=O)N2C` [Compound 25, 11-cyclopentyl-2-((2-methoxy-4-(4-(4-methylpiperazin-1-yl)piperidine-1-carbonyl)phenyl)amino)-5-methyl-5H-benzo[e]pyrimido[5,4-b][1,4]diazepin-6(11H)-one], the “KINOMEscan: BRAF(V600E)” value on panel of 442 kinases [1] amounted to 100. Moreover, on panel of 442 kinases [2], the “% Ctrl, YANK1” value stood at 100 % Ctrl. On panel of 442 kinases [3], the “KINOMEscan: BRAF” value came to 100. Moreover, the “KINOMEscan: LYN” value at panel of 442 kinases [4] amounted to 85.

Take `COc1cc(C(=O)N2CCC(N3CCN(C)CC3)CC2)ccc1Nc1ncc2c(n1)N1CCc3cccc(c31)C(=O)N2C` [Compound 24]: the “% Ctrl, YANK1” value on panel of 442 kinases [2] was determined as 100 % Ctrl. The “KINOMEscan: LYN” value on panel of 442 kinases [4] stood at 83.

Consider `COc1cc(C(=O)N2CCC(N3CCN(C)CC3)CC2)ccc1Nc1ncc2c(n1)N(C)c1ccccc1C(=O)N2C` [15 (LRRK2-IN-1)], for which the “KINOMEscan: BRAF(V600E)” value at panel of 442 kinases [1] turned out to be 100. For the same compound, the “% Ctrl, YANK1” value on panel of 442 kinases [2] amounted to 100 % Ctrl. Moreover, on panel of 442 kinases [3], the “KINOMEscan: BRAF” value was 81. The “KINOMEscan: LYN” value on panel of 442 kinases [4] came to 100.

As for `CCOc1cc(C(=O)N2CCC(N3CCN(C)CC3)CC2)ccc1Nc1ncc2c(n1)N(C1CCCC1)c1ccccc1C(=O)N2C` [Compound 26], at panel of 442 kinases [1], the “KINOMEscan: BRAF(V600E)” value worked out at 100. At panel of 442 kinases [2], the “% Ctrl, YANK1” value is 100 % Ctrl. The “KINOMEscan: BRAF” value at panel of 442 kinases [3] is on record as 90. In addition, at panel of 442 kinases [4], the “KINOMEscan: LYN” value is 100.

(Values after PMC3914206.)
